Patent US4188398A, “Method for treating epilepsy” (priority 1978, dated 1980)

Assays:
Camphor convulsions test = settings: for ED50: Mus musculus, read-out: ED50 (camphor)
Procedure: (§2) The anticonvulsant action of the proposed preparation was tested on mice weighing 19 to 25 g and rats weighing 120 to 150 g by conducting maximum electroshock, corazol, strychnine, camphor, nicotine and arecoline tests.

[1] = Maximum electroshock test
Procedure: as §2

[2] = Duration of Nembutal-induced sleep; assay type: in vivo; settings: for Average Duration of Nembutal-Induced Sleep: P = 0.05, Nembutal 40 mg/kg, proposed preparation 100 mg/kg, zarontin 150 mg/kg, milontin 100 mg/kg
From the text: (§1) Nembutal was used as a trunk narcotic, and urethane as a cortical narcotic.

[3] = Duration of urethane-induced sleep; assay type: in vivo; settings: milontin 100 mg/kg; for Average Duration of Urethane-Induced Sleep: P = 0.05, urethane 1,000 mg/kg, proposed preparation 100 mg/kg, zarontin 150 mg/kg
From the text: as §1

[4] = Acute toxicity, single intraperitoneal administration, 48 hours (Litchfield and Wilcockson); assay type: in vivo, white mice; settings: intraperitoneal, white mice, P=0.05; for LD50: 2880 min; for LD50 at 48 h: mouse, in vivo, ip
Procedure: The acute toxicity of the proposed preparation was tested on white mice weighing 19 to 20 g, by single intraperitoneal administrations of 1.5- and 10-percent colloidal solutions of the anticonvulsant in a 0.5-percent solution of carboxymethyl cellulose. The animals were observed during 48 hours. In order to establish the median lethal dose (LD50), the experimental data was statistically processed using the Litchfield and Wilcockson techniques. Milontin and zarontin were analyzed in the same way.

[5] = Neurotoxicity: rightening, gait, stance, muscle tone and equilibrium tests; assay type: in vivo; settings: P = 0.05; for TD50: in vivo, read-out: TD50 (mean neurotoxic dose)
Procedure: The neurotoxicity levels were determined by conducting rightening, gait, stance, muscle tone and equilibrium tests.

animal or person = experiment: animal or person
Procedure: The general effect of the proposed preparation was tested on white mice, rats and rabbits.

[6] = Clinical comparison in petit mal epilepsy; assay type: in vivo, human (patients)

Procedure for Corazol convulsion test: as §2

CN1C(=O)CC(c2ccccc2)C1=O (stereo not drawn) [Milontin, N-methyl-α-phenylsuccinimide]
ED50 (Camphor convulsions test): 99 mg/kg | protection index I=TD50/ED50, Camphor (Camphor convulsions test; camphor): 3.44 | protection index PI (mean lethal dose / mean effective dose), Camphor (Camphor convulsions test; camphor): 9.6 | ED50 ([1]; Mus musculus, read-out: ED50 (Electroshock)): 64 mg/kg | protection index I=TD50/ED50, Electroshock ([1]; electroshock): 5.3 | protection index PI (mean lethal dose / mean effective dose), Electroshock ([1]; electroshock): 14.85 | anticonvulsant activity in maximum electroshock test ([1]; in words): anticonvulsant activity was only exhibited by the proposed preparation and milontin | Average Duration of Nembutal-Induced Sleep [2]: 139.2 ± 33.2 min | prolongation of the hypnotic action of Nembutal ([2]; in words): statistically significant prolongation | antistrychnine effect, ranking of the three drugs (in words): at its lowest | ED50 (strychnine) (strychnine): 230 mg/kg | protection index I=TD50/ED50, Strychnine (strychnine): 1.47 | protection index PI (mean lethal dose / mean effective dose), Strychnine (strychnine): 4.14 | ED50 (Corazol convulsion test; Mus musculus, read-out: ED50 (corazol)): 87 mg/kg | protection index I=TD50/ED50, Corazol (Corazol convulsion test; corazol): 3.91 | protection index PI (mean lethal dose / mean effective dose), Corazol (Corazol convulsion test; corazol): 10.9 | Average Duration of Urethane-Induced Sleep [3]: 16.5 ± 4.6 min | prolongation of duration of urethane-induced sleep [3]: more than 3 times | LD50 [4]: 950 (792 to 1,140) mg/kg | LD50 at 48 h [4]: 950 mg/kg | TD50 (mean neurotoxic dose) [5]: 340(278 to 416) mg/kg | TD50 [5]: 340 mg/kg

CCCC(C)C1(CC)C(=O)NC(=O)NC1=O (stereo not shown) [Nembutal]
Average Duration of Nembutal-Induced Sleep [2]: 40.8 ± 23.04 min

CCOC(N)=O [Urethane]
Average Duration of Urethane-Induced Sleep [3]: 3.3 ± 1.4 min

CCC1(C)CC(=O)NC1=O (stereo not drawn) [Zarontin, α-methyl, ethylsuccinimide]
ED50 (Camphor convulsions test): 131 mg/kg | Average Duration of Nembutal-Induced Sleep [2]: 76.9 ± 28.9 min | ED50 (strychnine) (strychnine): 152 mg/kg | Average Duration of Urethane-Induced Sleep [3]: 4.7 ± 2.1 min | LD50 [4]: 1,325 (1,200 to 1,462) mg/kg | LD50 at 48 h [4]: 1320 mg/kg | dose inducing sleep (animal or person; intraperitoneal): ≥ 900 mg/kg | dose causing tremors of the hind extremities (animal or person; mouse, in vivo, ip): 700 mg/kg | TD50 (mean neurotoxic dose) [5]: 590(513 to 678) mg/kg | TD50 [5]: 590 mg/kg

CC1(c2ccccc2)CC(=O)N(CN2CCOCC2)C1=O (stereo not shown) [morpholep]
patients with improvement [6]: 12 out of 14

CCC1(C)CC(=O)NC1=O (stereo not shown) [pyknolepsin]
patients with improvement [6]: 12 out of 14

CCC1(C)CC(=O)NC1=O (stereo not shown) [suxilep]
patients with improvement [6]: 10 out of 12
